Patent US20210024542A1 (Torcept Therapeutics, Inc., priority 2018, published 2021)

Key:
TF-1 = experiment: OncoPanel cell proliferation assay, TF-1; type: cell-based, human; conditions: for Relative cell count (%) Mean: TF-1
Method: (§1) Cells were grown in RPMI 1640, 10% FBS, 2 mM L-alanyl-L-glutamine, 1 mM Na pyruvate, or a special medium. Cells were seeded into 384-well plates and incubated in a humidified atmosphere of 5% CO2 at 37° C. Compounds were added the day following cell seeding. At the same time, a time zero untreated cell plate was generated. After a 3-day incubation period, cells were fixed and stained to allow fluorescence imaging of nuclei. Compounds (1 mM stock solutions) were serially diluted in half-log steps from the highest test concentration ([…]), and assayed over 10 concentrations with a maximum assay concentration of 0.1% DMSO. Automated fluorescence microscopy was carried out using a Molecular Devices ImageXpress Micro XL high-content imager, and images were collected with a 4× objective. 16-bit TIFF images were acquired and analyzed with MetaXpress 5.1.0.41 software.
(§2) Cell proliferation was measured by the fluorescence intensity of an incorporated nuclear dye. The output is referred to as the relative cell count, where the measured nuclear intensity is transformed to percent of control (POC) using the following formula: […]
(§3) Cellular response parameters were calculated using nonlinear regression to a sigmoidal single-site dose response model:
(§4) Where y is a response measured at concentration x, A and B are the lower and upper limits of the response, C is the concentration at the response midpoint (EC50), and D is the Hill Slope (Ref. 1).
(§5) EC50 is the test compound concentration at the curve inflection point or half the effective response (parameter C of the fitted curve solution). GI50 is the concentration needed to reduce the observed growth by half (midway between the curve maximum and the time zero value). “Cell Count Activity Area” is an estimate of the integrated area above the curve (Barretina, et al. The Cancer Cell Line Encyclopedia enables predictive modelling of anticancer drug sensitivity. Nature 483: 603-607). […] In rare instances, values <0 or >10 may be observed. […] Curve-fitting, calculations, and report generation was performed using a custom data reduction engine and MathIQ based software (AIM).

SNU-C2B = experiment: OncoPanel cell proliferation assay, SNU-C2B; type: cell-based, human
Method: as §1, §2, §3, §4, §5

SW684 = experiment: OncoPanel cell proliferation assay, SW684; type: cell-based, human; conditions: for Relative cell count (%) Mean: SW684
Method: as §1, with “Cells” for “Cells were grown in RPMI 1640, 10% FBS, 2 mM L-alanyl-L-glutamine, 1 mM Na pyruvate, or a special medium. Cells”
as §2, §3, §4
(§6) GI50 is the concentration needed to reduce the observed growth by half (midway between the curve maximum and the time zero value). […] In rare instances, values <0 or >10 may be observed. […] Curve-fitting, calculations, and report generation was performed using a custom data reduction engine and MathIQ based software (AIM).

RKOE6 = experiment: OncoPanel cell proliferation assay, RKOE6; conditions: for Relative cell count (%) Mean: RKOE6
Method: Cells were seeded into 384-well plates and incubated in a humidified atmosphere of 5% CO2 at 37° C. Compounds were added the day following cell seeding. At the same time, a time zero untreated cell plate was generated. After a 3-day incubation period, cells were fixed and stained to allow fluorescence imaging of nuclei. Compounds (1 mM stock solutions) were serially diluted in half-log steps from the highest test concentration (1 micromol), and assayed over 10 concentrations with a maximum assay concentration of 0.1% DMSO. Automated fluorescence microscopy was carried out using a Molecular Devices ImageXpress Micro XL high-content imager, and images were collected with a 4× objective. 16-bit TIFF images were acquired and analyzed with MetaXpress 5.1.0.41 software.

DMS114 = experiment: OncoPanel cell proliferation assay, DMS114; type: cell-based, human; conditions: for Relative cell count (%) Mean: DMS114
Method: as §1, with “Cells” for “Cells were grown in RPMI 1640, 10% FBS, 2 mM L-alanyl-L-glutamine, 1 mM Na pyruvate, or a special medium. Cells”
as §2, §3, §4, §6

786-O = experiment: OncoPanel cell proliferation assay, 786-O; type: cell-based, human; conditions: for Relative cell count (%) Mean: 786-0
Method: as §1, §2, §3, §4, §5

SK-MEL-28 = experiment: OncoPanel cell proliferation assay, SK-MEL-28; type: cell-based, human; conditions: Homo sapiens, 72 h; SK-MEL-28, 3-day incubation; read-out: Cell Count EC50
Method: as §1, §2, §3, §4, §5

SMILES: CO[C@H]1C[C@@H]2CC[C@@H](C)[C@@](O)(O2)C(=O)C(=O)N2CCCC[C@H]2C(=O)O[C@H]([C@H](C)C[C@@H]2C[C@@H]3C[C@H]2C[C@H]3O)CC(=O)[C@H](C)/C=C(\C)[C@@H](O)[C@@H](OC)C(=O)[C@H](C)C[C@H](C)/C=C/C=C/C=C/1C [Formula I, 37R-hydroxynorbornylrapamycin]
- EC50 (TF-1; Homo sapiens, 72 h, TF-1, 3-day incubation, read-out: Cell Count EC50): > 1000 nM
- GI50 (TF-1; Homo sapiens, 72 h, TF-1, 3-day incubation, read-out: Cell Count GI50): > 1000 nM
- IC50 (TF-1; Homo sapiens, 72 h, TF-1, 3-day incubation, read-out: Cell Count IC50): > 1000 nM
- Cell Count Activity Area (TF-1; TF-1, scale 0-10): 1.64
- Relative cell count (%) Mean (TF-1; 1.00E+00 microM): 80.6%
- Relative cell count (%) Mean (TF-1; 1.00E−01 microM): 80.1%
- Relative cell count (%) Mean (TF-1; 1.00E−02 microM): 81.1%
- Relative cell count (%) Mean (TF-1; 1.00E−03 microM): 87.4%
- Relative cell count (%) Mean (TF-1; 1.01E−04 microM): 97.8%
- Relative cell count (%) Mean (TF-1; 3.16E−01 microM): 80.1%
- Relative cell count (%) Mean (TF-1; 3.17E−02 microM): 81.3%
- Relative cell count (%) Mean (TF-1; 3.17E−03 microM): 88.0%
- Relative cell count (%) Mean (TF-1; 3.18E−04 microM): 88.0%
- Relative cell count (%) Mean (TF-1; 3.18E−05 microM): 96.7%
- Relative cell count (%) Mean (SNU-C2B; 1.00E+00 microM): 58.7%
- Relative cell count (%) Mean (SNU-C2B; 1.00E−01 microM): 65.6%
- Relative cell count (%) Mean (SNU-C2B; 1.00E−02 microM): 68.6%
- Relative cell count (%) Mean (SNU-C2B; 1.00E−03 microM): 73.7%
- Relative cell count (%) Mean (SNU-C2B; 1.01E−04 microM): 89.1%
- Relative cell count (%) Mean (SNU-C2B; 3.16E−01 microM): 55.1%
- Relative cell count (%) Mean (SNU-C2B; 3.17E−02 microM): 63.2%
- Relative cell count (%) Mean (SNU-C2B; 3.17E−03 microM): 71.6%
- Relative cell count (%) Mean (SNU-C2B; 3.18E−04 microM): 79.6%
- Relative cell count (%) Mean (SNU-C2B; 3.18E−05 microM): 83.2%
- EC50 (SNU-C2B; Homo sapiens, 72 h, 3-day incubation, read-out: Cell Count EC50): 2.07 nM
- GI50 (SNU-C2B; Homo sapiens, 72 h, 3-day incubation, read-out: Cell Count GI50): 24.1 nM
- IC50 (SNU-C2B; Homo sapiens, 72 h, 3-day incubation, read-out: Cell Count IC50): > 1000 nM
- Cell Count Activity Area (SNU-C2B; scale 0-10): 2.30
- EC50 (SW684; Homo sapiens, 72 h, SW684, 3-day incubation, read-out: Cell Count EC50): 0.477 nM
- GI50 (SW684; Homo sapiens, 72 h, SW684, 3-day incubation, read-out: Cell Count GI50): 0.286 nM
- IC50 (SW684; Homo sapiens, 72 h, SW684, 3-day incubation, read-out: Cell Count IC50): 21.1 nM
- Cell Count Activity Area (SW684; SW684, scale 0-10): 3.93
- Relative cell count (%) Mean (SW684; 1.00E+00 microM): 44.1%
- Relative cell count (%) Mean (SW684; 1.00E−01 microM): 51.0%
- Relative cell count (%) Mean (SW684; 1.00E−02 microM): 55.0%
- Relative cell count (%) Mean (SW684; 1.00E−03 microM): 68.8%
- Relative cell count (%) Mean (SW684; 1.01E−04 microM): 89.3%
- Relative cell count (%) Mean (SW684; 3.16E−01 microM): 47.1%
- Relative cell count (%) Mean (SW684; 3.17E−02 microM): 52.7%
- Relative cell count (%) Mean (SW684; 3.17E−03 microM): 60.7%
- Relative cell count (%) Mean (SW684; 3.18E−04 microM): 77.8%
- Relative cell count (%) Mean (SW684; 3.18E−05 microM): 91.9%
- EC50 (RKOE6; Homo sapiens, RKOE6, 72 h, read-out: Cell Count EC50): 0.201 nM
- GI50 (RKOE6; Homo sapiens, RKOE6, 72 h, read-out: Cell Count GI50): 1.07 nM
- IC50 (RKOE6; Homo sapiens, RKOE6, 72 h, read-out: Cell Count IC50): 2.88 nM
- Cell Count Activity Area (RKOE6; RKOE6, scale 0-10): 4.44
- Relative cell count (%) Mean (RKOE6; 1.00E+00 microM): 41.6%
- Relative cell count (%) Mean (RKOE6; 1.00E−01 microM): 43.0%
- Relative cell count (%) Mean (RKOE6; 1.00E−02 microM): 47.6%
- Relative cell count (%) Mean (RKOE6; 1.00E−03 microM): 55.7%
- Relative cell count (%) Mean (RKOE6; 1.01E−04 microM): 73.6%
- Relative cell count (%) Mean (RKOE6; 3.16E−01 microM): 41.0%
- Relative cell count (%) Mean (RKOE6; 3.17E−02 microM): 42.9%
- Relative cell count (%) Mean (RKOE6; 3.17E−03 microM): 52.5%
- Relative cell count (%) Mean (RKOE6; 3.18E−04 microM): 66.1%
- Relative cell count (%) Mean (RKOE6; 3.18E−05 microM): 92.5%
- Cell Count Activity Area (DMS114; DMS114, scale 0-10): 4.35
- Relative cell count (%) Mean (DMS114; 1.00E+00 microM): 39.3%
- Relative cell count (%) Mean (DMS114; 1.00E−01 microM): 44.1%
- Relative cell count (%) Mean (DMS114; 1.00E−02 microM): 50.7%
- Relative cell count (%) Mean (DMS114; 1.00E−03 microM): 57.7%
- Relative cell count (%) Mean (DMS114; 1.01E−04 microM): 77.8%
- Relative cell count (%) Mean (DMS114; 3.16E−01 microM): 41.4%
- Relative cell count (%) Mean (DMS114; 3.17E−02 microM): 44.7%
- Relative cell count (%) Mean (DMS114; 3.17E−03 microM): 51.7%
- Relative cell count (%) Mean (DMS114; 3.18E−04 microM): 67.2%
- Relative cell count (%) Mean (DMS114; 3.18E−05 microM): 90.1%
- EC50 (DMS114; Homo sapiens, DMS-114, 72 h, DMS114, 3-day incubation, read-out: Cell Count EC50): 0.251 nM
- GI50 (DMS114; Homo sapiens, DMS-114, 72 h, DMS114, 3-day incubation, read-out: Cell Count GI50): 0.0822 nM
- IC50 (DMS114; Homo sapiens, DMS-114, 72 h, DMS114, 3-day incubation, read-out: Cell Count IC50): 4.4 nM
- Relative cell count (%) Mean (786-O; 1.00E+00 microM): 37.4%
- Relative cell count (%) Mean (786-O; 1.00E−01 microM): 44.8%
- Relative cell count (%) Mean (786-O; 1.00E−02 microM): 52.1%
- Relative cell count (%) Mean (786-O; 1.00E−03 microM): 61.1%
- Relative cell count (%) Mean (786-O; 1.01E−04 microM): 88.5%
- Relative cell count (%) Mean (786-O; 3.16E−01 microM): 43.9%
- Relative cell count (%) Mean (786-O; 3.17E−02 microM): 46.5%
- Relative cell count (%) Mean (786-O; 3.17E−03 microM): 60.0%
- Relative cell count (%) Mean (786-O; 3.18E−04 microM): 77.4%
- Relative cell count (%) Mean (786-O; 3.18E−05 microM): 100.6%
- Cell Count Activity Area (786-O; 786-O, scale 0-10): 4.43
- EC50 (786-O; Homo sapiens, 786-0, 72 h, 786-O, 3-day incubation, read-out: Cell Count EC50): 0.395 nM
- GI50 (786-O; Homo sapiens, 786-0, 72 h, 786-O, 3-day incubation, read-out: Cell Count GI50): 1.91 nM
- IC50 (786-O; Homo sapiens, 786-0, 72 h, 786-O, 3-day incubation, read-out: Cell Count IC50): 4.07 nM
- EC50 (SK-MEL-28): 0.194 nM
